In one data set the test system is recurrent IDHmt gliomas. The note with it: second study in this population; cited from earlier work.
Another data set is described as follows: Surgical. The data set is classed as in vivo. Particulars: human, oral, 60 mg.
In another data set the test system is PARP1/2. The note with it: read-out: in vitro IC50 for PARP1/2 inhibition; cited from earlier work.

As to `O=C(c1cc(Cc2n[nH]c(=O)c3ccccc23)ccc1F)N1CCN(C(=O)C2CC2)CC1` [olaparib], in the data set on recurrent IDHmt gliomas, the responses result was “no responses”.
Consider `C[C@]12CCCN1CC1=NNC(=O)c3cc(F)cc4[nH]c2c1c34` [pamiparib], for which the fraction unbound in the data set “Surgical” (enhancing tumor) worked out at 0.076; in the data set “Surgical” (non-enhancing tumor), 0.083; in the data set “Surgical” (plasma) it was 0.031. In addition, the Kp in the data set “Surgical” (non-enhancing tumor / plasma) was 0.23. In addition, the Kp uu in “Surgical” (non-enhancing tumor / plasma) came to 0.92. For the same compound, the IC50 in the data set on PARP1/2 is approximately 1 nM.

The term fraction unbound denotes free concentration divided by total concentration. By Kp is commonly meant tissue or fluid exposure divided by exposure in the circulation.

The values above are taken from publication PMC12979031 (Neuro-oncology, 2026).
